Consider 17 compounds from patent publication US9493480B2, “Monomeric trioxane amide sulfur compounds” (THE JOHNS HOPKINS UNIVERSITY, priority 2011, dated 2016).

The test system of data set [1] is Plasmodium berghei, ANKA malaria strain. The experiment in a line: In vivo antimalarial efficacy, single oral dose of trioxane combined with mefloquine hydrochloride in P. berghei infected mice. Conditions: for cure outcome (survival to day 30 with no detectable parasites = complete cure): single oral dose of trioxane (6 mg/kg) combined with mefloquine hydrochloride (18 mg/kg); for parasitemia on day 30 after infection in surviving mice: value of one mouse where so stated. Here is the method: […] Rosenthal, A. S., et al., Malaria-infected Mice are Cured by a Single Oral Dose of New Dimeric Trioxane Sulfones Which are Also Selectively and Powerfully Cytotoxic to Cancer Cells. J. Med. Chem. 2009, 52, 1198-1203. Each of four mice in a group was treated orally 24 hours post infection with a single dose of 0.20 mL [(0.20 mL/1.07 mL)×0.64 mg=0.12 mg] of diluted trioxane solution, […] Alternatively, a single dose of 7.5 mg/kg of trioxane plus 15.0 mg/kg of mefloquine hydrochloride was used. The malariometrics used involved determining blood parasitemia levels, as well as monitoring the duration of animal survival compared to survival time of infected animals receiving no drug.
The average survival time of the malaria-infected animals receiving no drug was 6.8 days post infection. All of the infected mice in this study receiving the trioxane drug artemether (2b) plus mefloquine died on the average on day 18.8 post infection (Table 1, controls). Additionally, a single oral dose of artemether (6 mg/kg) plus lumefantrine (18 mg/kg) was not curative (see Table 1), with the mice dying an average of 12.5 days after infection. […]
(§1) A widely accepted indication of complete cure (i.e., 100% efficacy) is survival of animals to day 30 post infection with no detectable malaria parasites in the animals' blood at that time. It is important to note that the combination of the standard trioxane drug artemether (2b), with either mefloquine hydrochloride or lumefantrine, was not curative (Table 1, controls). […] While 3-fluoroanilide 12b was not curative, administration of 3-methylthioether 3-arteSanilide 12d at a dose of 7.5 mg/kg plus 15 mg/kg mefloquine hydrochloride achieved mouse survival through day 30 after infection; however, all four of the surviving mice appeared sick and had considerable parasitemia levels (25-50%). […] In addition, 3-arteSanilide 12d is more efficacious than 4-arteSanilide 12c. […] Replacing the sulfur atom in 12d with an oxygen atom afforded methyl ether 12p, which prolonged survival time to only 21.8 days after infection. This observation indicates the critical nature of the sulfur atom. In addition, the lipophilicity of 3-arteSanilide 12d was increased by lengthening the alkyl sulfide chain from methyl to n-propyl. 3-n-Propyl sulfide 12l, however, is much less efficacious than the curative methyl sulfide 3-arteSanilide 12d.

For data set [2], the system named is P. falciparum (NF54) Parasites. The experiment in a line: In vitro antimalarial potencies of trioxanes against P. falciparum (NF54) parasites. Type of data set: cell-based. The following applies: Plasmodium falciparum, M ± SD of at least four determinations. Here is the method: Biology: In Vitro Potencies. Prompted by the unexpected in vivo efficacy of 3-arteSanilide 12d, the in vitro the intrinsic antimalarial activity, free of host-mediated factors, was assayed of compounds that differ in the oxidative state of the sulfur atom (Table 2).

Data set [3] is described as follows: Overt toxicity, behavior and weight gain of treated malaria-infected mice. Type of data set: in vivo. The following applies: single oral dose 100 mg/kg, no mefloquine. Here is the method:
as §1

[4] abbreviates: single oral dose: trioxane 7.5 mg/kg + mefloquine hydrochloride 15 mg/kg.
The mark [5] stands for this setting: single oral dose: trioxane 7.5 mg/kg + mefloquine hydrochloride 15 mg/kg, mice, 4 per group.
The mark [6] stands for this setting: single oral dose 24 h post infection: trioxane 6 mg/kg + mefloquine hydrochloride 18 mg/kg, C57BL/6J male mice, 4 per group.
[7] abbreviates: single oral dose: trioxane 6 mg/kg + mefloquine hydrochloride 18 mg/kg.
[8] abbreviates: single oral dose: artemether 6 mg/kg + lumefantrine 18 mg/kg.
The mark [9] stands for this setting: mefloquine hydrochloride alone, single oral dose 15 mg/kg.
[10] abbreviates: mefloquine hydrochloride alone, single oral dose 18 mg/kg.

A value given as a limit tells only on which side of the number the result lay.

In the case of `CSc1ccc(NC(=O)CC[C@H]2O[C@@H]3O[C@@]4(C)CC[C@H]5[C@H](C)CC[C@@H]([C@H]2C)[C@@]35OO4)cc1` [12c, 4-arteSanilide], the “% suppression of parasitemia (on day 3 after infection)” value (“% suppression of parasitemia” for short) in data set [1] (setting [4]) is recorded as more than 99.9%. In addition, the “average survival (days) after infection” value in data set [1] (setting [5]) worked out at 16.3 days.

As for `CSc1ccccc1NC(=O)CC[C@H]1O[C@@H]2O[C@@]3(C)CC[C@H]4[C@H](C)CC[C@@H]([C@H]1C)[C@@]24OO3` [12e, 2-arteSanilide], the “average survival (days) after infection” value in data set [1] (setting [6]) was 27.0 days. In addition, the “% suppression of parasitemia” value in data set [1] (setting [7]) is more than 99.9%.

For `CSc1cc(NC(=O)CC[C@H]2O[C@@H]3O[C@@]4(C)CC[C@H]5[C@H](C)CC[C@@H]([C@H]2C)[C@@]35OO4)cc(SC)c1` [12f, 3,5-arteSSanilide], the inhibition in vivo at 100 mg/kg in data set [1] (Plasmodium berghei, 72 h, single oral dose: trioxane 100 mg/kg, no mefloquine, read-out: % suppression of parasitemia (on day 3 after infection)) was determined as 97.9%. Further, the “mouse survival in words” value in data set [1] (single oral dose 100 mg/kg, no mefloquine) was “essentially no increase in mouse longevity”. The “average survival (days) after infection” value in data set [1] (setting [6]) was determined as 30 days. The “cure outcome (survival to day 30 with no detectable parasites = complete cure)” value in data set [1] was “partially curative”. Besides, in data set [1] (setting [7]), the “% suppression of parasitemia” value is more than 99.9%; the “parasitemia on day 30 after infection in surviving mice” value is 5% and ^dThree mice were parasite-free on day 30, but one mouse had 5% parasitemia on day 30 after infection. Further, the “average survival (days) after infection” value in data set [1] (single oral dose: trioxane 100 mg/kg, no mefloquine) came to 7.5 days. For the same compound, the EC50 (commonly the concentration that produces a half-maximal response) in data set [2] is 6.5 ± 0.28 nM. Moreover, the “toxicity of single oral dose” value in data set [3] was “nontoxic”.

Turning to `C[C@H]1[C@@H](CCC(=O)Nc2cccc([S+](C)[O-])c2)O[C@@H]2O[C@@]3(C)CC[C@H]4[C@H](C)CC[C@@H]1[C@@]24OO3` (some centres unmarked) [12g], the “average survival (days) after infection” value in data set [1] (setting [6]) is recorded as 23.0 days. Also, the “cure outcome (survival to day 30 with no detectable parasites = complete cure)” value in data set [1] is “does not”. Further, the “% suppression of parasitemia” value in data set [1] (setting [7]) is listed as more than 99.9%. This compound gave an EC50 in data set [2] of 23 ± 1.3 nM.

In the case of `C[C@H]1[C@@H](CCC(=O)Nc2cccc([S+](C)[O-])c2)O[C@@H]2O[C@]3(C)CC[C@H]4[C@H](C)CC[C@@H]1[C@@]24OO3` (some centres unmarked) [12h], the “average survival (days) after infection” value in data set [1] (setting [6]) was determined as 30 days. Further, the “cure outcome (survival to day 30 with no detectable parasites = complete cure)” value in data set [1] is “partially curative”. Further, in data set [1] (setting [7]), the “% suppression of parasitemia” value is more than 99.9% and the “parasitemia on day 30 after infection in surviving mice” value was “^eOne mouse had 1.8% parasitemia on day 30 after infection”. The EC50 in data set [2] is 29 ± 0.43 nM.

`C[C@H]1[C@@H](CCC(=O)Nc2ccc(S(C)(=O)=O)cc2)O[C@@H]2O[C@]3(C)CC[C@H]4[C@H](C)CC[C@@H]1[C@@]24OO3` [12i]: the “% suppression of parasitemia” value in data set [1] (setting [4]) was more than 99.9%. Also, the “average survival (days) after infection” value in data set [1] (setting [5]) was determined as 22.5 days.

As to `C[C@H]1[C@@H](CCC(=O)Nc2cccc(S(C)(=O)=O)c2)O[C@@H]2O[C@@]3(C)CC[C@H]4[C@H](C)CC[C@@H]1[C@@]24OO3` [12j], the “% suppression of parasitemia” value in data set [1] (setting [4]) was 99.9%. Further, the “average survival (days) after infection” value in data set [1] (setting [5]) is given as 15.5 days. The compound also had an EC50 in data set [2] of 21 ± 1.1 nM.

Take `C[C@H]1[C@@H](CCC(=O)Nc2ccccc2S(C)(=O)=O)O[C@@H]2O[C@]3(C)CC[C@H]4[C@H](C)CC[C@@H]1[C@@]24OO3` [12k]: the “% suppression of parasitemia” value in data set [1] (setting [4]) is more than 99.9%. The “average survival (days) after infection” value in data set [1] (setting [5]) is 22.8 days.

Regarding `CCCSc1cccc(NC(=O)CC[C@H]2O[C@@H]3O[C@]4(C)CC[C@H]5[C@H](C)CC[C@@H]([C@H]2C)[C@@]35OO4)c1` [12l], the “average survival (days) after infection” value in data set [1] (setting [6]) was 23.0 days. In addition, in data set [1] (setting [7]), the “% suppression of parasitemia” value is given as more than 99.9%.

`CCCS(=O)(=O)c1cccc(NC(=O)CC[C@H]2O[C@@H]3O[C@]4(C)CC[C@H]5[C@H](C)CC[C@@H]([C@H]2C)[C@@]35OO4)c1` [12m]: the “average survival (days) after infection” value in data set [1] (setting [6]) is 11.0 days. Besides, the “% suppression of parasitemia” value in data set [1] (setting [7]) is recorded as more than 99.9%.

For the compound `CCCS(=O)(=O)c1ccccc1NC(=O)CC[C@H]1O[C@@H]2O[C@]3(C)CC[C@H]4[C@H](C)CC[C@@H]([C@H]1C)[C@@]24OO3` [12n], the “average survival (days) after infection” value in data set [1] (setting [6]) was 21.8 days. The “% suppression of parasitemia” value in data set [1] (setting [7]) is on record as more than 99.9%.

Turning to `C[C@H]1[C@@H](CCC(=O)Nc2ccc(S(C)(=O)=O)cc2Cl)O[C@@H]2O[C@]3(C)CC[C@H]4[C@H](C)CC[C@@H]1[C@@]24OO3` [12o], the “% suppression of parasitemia” value in data set [1] (setting [4]) was more than 99.9%. In data set [1] (setting [5]), the “average survival (days) after infection” value amounted to 24.5 days.

Consider `COc1cccc(NC(=O)CC[C@H]2O[C@@H]3O[C@]4(C)CC[C@H]5[C@H](C)CC[C@@H]([C@H]2C)[C@@]35OO4)c1` [12p], for which the “average survival (days) after infection” value in data set [1] (setting [6]) is 21.8 days. Besides, the “% suppression of parasitemia” value in data set [1] (setting [7]) was more than 99.9%.

For the compound `CCCCCCOc1ccc(NC(=O)CC[C@H]2O[C@@H]3O[C@]4(C)CC[C@H]5[C@H](C)CC[C@@H]([C@H]2C)[C@@]35OO4)cc1` [12q], in data set [1] (setting [4]), the “% suppression of parasitemia” value is listed as more than 99.9%. The “average survival (days) after infection” value in data set [1] (setting [5]) was 15.0 days.

As for `CO[C@H]1O[C@@H]2O[C@@]3(C)CC[C@H]4[C@H](C)CC[C@@H]([C@H]1C)[C@@]24OO3` [artemether (2b), artemether, reference compound], the “average survival (days) after infection” value in data set [1] (setting [6]) is on record as 18.8 days; in data set [1] (setting [8]), 12.5 days; in data set [1] (setting [5]), 19.8 days. Besides, the “% suppression of parasitemia” value in data set [1] (setting [8]), in data set [1] (setting [7]) and in data set [1] (setting [4]) was more than 99.9% each time.

On to `CCCCN(CCCC)CC(O)c1cc(Cl)cc2c1-c1ccc(Cl)cc1/C2=C/c1ccc(Cl)cc1` (centres unmarked) [lumefantrine, reference compound], for which, in data set [1] (Plasmodium berghei, po, 72 h, read-out: % suppression of parasitemia (on day 3 after infection)), the inhibition in vivo at 18 mg/kg was more than 99.9%. For the same compound, the “average survival (days) after infection” value in data set [1] (lumefantrine alone, single oral dose 18 mg/kg) was 21.5 days.

`Cl.OC(c1cc(C(F)(F)F)nc2c(C(F)(F)F)cccc12)C1CCCCN1` (centres unmarked) [mefloquine, mefloquine hydrochloride, reference compound]: the “% suppression of parasitemia” value in data set [1] (setting [9]) and in data set [1] (setting [10]) was more than 99.9% in each case. Also, the “average survival (days) after infection” value is listed as 15.5 days in data set [1] (setting [9]) and 19.8 days in data set [1] (setting [10]).
